The values below come from PubChem BioAssay AID1259411 (Chemical Carcinogenesis Research Information System (CCRIS), 2018).

Active and inactive are the calls of the source. No rule for the calls is given here.

The test system of this series is rodent carcinogenicity bioassays, tumor incidence. In words: CCRIS carcinogenicity studies. In a few lines:
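Archive of carcinogenicity, mutagenicity, tumor promotion and tumor inhibition results drawn from journals, NCI reports and other sources, expert-reviewed; covers 1985-2011 and is no longer updated.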

Turning to `Cc1c(COC(=O)[C@@H]2[C@H](/C=C(\Cl)C(F)(F)F)C2(C)C)cccc1-c1ccccc1`, the carcinogen call (Species: Mouse, Strain/Sex: Swiss-Webster Derived Tac(SW)fBR/Female (50/sex/group), Route: Oral, Dose: 0, 50, 200, 500, 600 ppm in feed for 20-21 months, Dose: 0, 50, 200, 500, 600 ppm in feed for 20-21 months) is “inactive; negative; purity 88.35% (98% cis- and 2% trans-isomer)”; the carcinogen call (Species: Mouse, Strain/Sex: Swiss-Webster Derived Tac(SW)fBR/Male (50/sex/group), Route: Oral, Dose: 0, 50, 200, 500, 600 ppm in feed for 20-21 months, Dose: 0, 50, 200, 500, 600 ppm in feed for 20-21 months, Tumor Site: Type of Lesion: Urinary bladder: Leiomyosarcoma (Dose related increase, 29% at 600 ppm)) is “active; positive; purity 88.35% (98% cis- and 2% trans-isomer)”; the carcinogen call (Species: Rat, Strain/Sex: Sprague-Dawley/Female (50/sex/group), Route: Oral, Dose: 0, 12, 50, 100, 200 ppm in feed for 2 yr, Dose: 0, 12, 50, 100, 200 ppm in feed for 2 yr) was “inactive; negative; purity 88.35% (98% cis- and 2% trans-isomer)”; the carcinogen call (Species: Rat, Strain/Sex: Sprague-Dawley/Male (60/group), Route: Oral, Dose: 0, 12, 50, 100, 200 ppm in feed for 2 yr, Dose: 0, 12, 50, 100, 200 ppm in feed for 2 yr) is “inactive; negative; purity 88.35% (98% cis- and 2% trans-isomer)”.

On to `COC(=O)C(C)(C)Oc1ccc(-c2ccc(Cl)cc2)cc1`, for which the carcinogen call (Species: RAT, Strain/Sex: F344/MALE, Route: ORAL, Dose: 0.1% IN DIET FOR 75 WK, Tumor Site: Type of Lesion: LIVER: HEPATOCELLULAR CARCINOMA) is “active; positive”.

As for `O=[N+]([O-])c1cc2c3c(cccc3c1)-c1ccccc1-2`, the carcinogen call (Species: MOUSE, Strain/Sex: B6C3F1/MALE, Route: INTRAPERITONEAL, Dose: 0, 400 NMOL IN 35 µL DMSO ON DAYS 1 (1/7 TOTAL DOSE), 8 (2/7 TOTAL DOSE), AND 15 (4/7 TOTAL DOSE) AFTER BIRTH (STUDY DUR) was “inactive; negative”.

Take `CCC(=O)C(CC(C)N(C)C)(c1ccccc1)c1ccccc1` (centres undefined): the carcinogen call (Species: MOUSE, Strain/Sex: B6C3F1/FEMALE, Route: ORAL, Dose: 0, 15, 60 MG/KG IN DIET FOR DURATION OF STUDY (STUDY DURATION: 108 WK), Dose: 0, 15, 60 MG/KG IN DIET FOR DURATION OF STUDY (STUDY DURATION: 108 WK)) is “inactive; negative”; the carcinogen call (Species: MOUSE, Strain/Sex: B6C3F1/MALE, Route: ORAL, Dose: 0, 15, 60 MG/KG IN DIET FOR DURATION OF STUDY (STUDY DURATION: 108 WK), Dose: 0, 15, 60 MG/KG IN DIET FOR DURATION OF STUDY (STUDY DURATION: 108 WK)) was “inactive; negative”; the carcinogen call (Species: RAT, Strain/Sex: F344/FEMALE, Route: ORAL, Dose: 0, 28, 88 MG/KG IN DIET FOR DURATION OF STUDY (STUDY DURATION: 108 WK), Dose: 0, 28, 88 MG/KG IN DIET FOR DURATION OF STUDY (STUDY DURATION: 108 WK)) is “inactive; negative”; the carcinogen call (Species: RAT, Strain/Sex: F344/MALE, Route: ORAL, Dose: 0, 16, 46 MG/KG IN DIET FOR DURATION OF STUDY (STUDY DURATION: 108 WK), Dose: 0, 16, 46 MG/KG IN DIET FOR DURATION OF STUDY (STUDY DURATION: 108 WK)) is “inactive; negative”.

Turning to `COc1ccccc1[N+](=O)[O-]`, the carcinogen call by setting is: (Species: MOUSE, Strain/Sex: B6C3F1/MALE, Route: ORAL, Dose: 0, 666, 2000, 6000 PPM IN DIET FOR 103 WK (STUDY DURATION: 103 WK), Dose: 0, 666, 2000, 6000 PPM IN DIET FOR 103 WK (STUDY DURATION: 103 WK), Tumor Site: Type of Lesion: LIVER: HEPATOBLASTOMA, HEPATOCELLULAR ADENOMA) “active; positive”; (Species: RAT, Strain/Sex: F344/N/FEMALE, Route: ORAL, Dose: 0, 222, 666, 2000 PPM IN DIET FOR 103 WK (STUDY DURATION: 103 WK), Dose: 0, 222, 666, 2000 PPM IN DIET FOR 103 WK (STUDY DURATION: 103 WK)) “inactive; negative”; (Species: RAT, Strain/Sex: F344/N/FEMALE, Route: ORAL, Dose: 0, 6000, 18,000 PPM IN DIET FOR 27 WK (STUDY DURATION: 104 WK), Dose: 0, 6000, 18,000 PPM IN DIET FOR 27 WK (STUDY DURATION: 104 WK), Tumor Site: Type of Lesion: COLON: ADENOMATOUS POLYP, URINARY BLADDER: CARCINOMA, SARCOMA) “active; positive”; (Species: RAT, Strain/Sex: F344/N/MALE, Route: ORAL, Dose: 0, 222, 666, 2000 PPM IN DIET FOR 103 WK (STUDY DURATION: 103 WK), Dose: 0, 222, 666, 2000 PPM IN DIET FOR 103 WK (STUDY DURATION: 103 WK)) “inactive; negative”; (Species: RAT, Strain/Sex: F344/N/MALE, Route: ORAL, Dose: 0, 6000, 18,000 PPM IN DIET FOR 27 WK (STUDY DURATION: 104 WK), Dose: 0, 6000, 18,000 PPM IN DIET FOR 27 WK (STUDY DURATION: 104 WK), Tumor Site: Type of Lesion: COLON: ADENOMATOUS POLYP, KIDNEY: CARCINOMA, URINARY BLADDER: CARCINOMA, SARCOMA, Tumor Site: Type of Lesion: COLON: ADENOMATOUS POLYP, KIDNEY: CARCINOMA, URINARY BLADDER: CARCINOMA, SARCOMA) “active; positive”.

With `C=C(C#N)C(=O)OCC(C)C`, the carcinogen call (Species: RAT, Strain/Sex: F344/FEMALE, Route: IMPLANT, Dose: 0, 10, 100 µL INTO VENTRAL LIVER CAPSULE ONCE (STUDY DURATION: 2 YR), Dose: 0, 10, 100 µL INTO VENTRAL LIVER CAPSULE ONCE (STUDY DURATION: 2 YR), Tumor Site: Type of Lesion: BODY CAVITY: SARCOMA) was “active; positive” and the carcinogen call (Species: RAT, Strain/Sex: F344/MALE, Route: IMPLANT, Dose: 0, 10, 100 µL INTO VENTRAL LIVER CAPSULE ONCE (STUDY DURATION: 2 YR), Dose: 0, 10, 100 µL INTO VENTRAL LIVER CAPSULE ONCE (STUDY DURATION: 2 YR), Tumor Site: Type of Lesion: BODY CAVITY: SARCOMA) is “active; positive”.

Consider `CCNC(=O)N(CC)N=O`, for which the carcinogen call by setting is: (Species: RAT, Strain/Sex: F344/FEMALE, Route: GAVAGE, Dose: 0, 20, 40 UMOL/WK IN CORN OIL/ETHYL ACETATE (2: 1) FOR 30 WK (LOW DOSE) OR 22.5 WK (HIGH DOSE) FOR TOTAL DOSES OF 0, 0.6, Dose: 0, 20, 40 UMOL/WK IN CORN OIL/ETHYL ACETATE (2: 1) FOR 30 WK (LOW DOSE) OR 22.5 WK (HIGH DOSE) FOR TOTAL DOSES OF 0, 0.6, Tumor Site: Type of Lesion: MAMMARY GLAND: TUMOR) “active; positive”; (Species: RAT, Strain/Sex: F344/FEMALE, Route: INTRAVESICULAR, Dose: 0, 3 MG 2/WK FOR 30 WK (STUDY DURATION: LIFETIME), Tumor Site: Type of Lesion: MAMMARY GLAND: TUMOR, LUNG: TUMOR, ZYMBAL GLAND: TUMOR, Tumor Site: Type of Lesion: MAMMARY GLAND: TUMOR, LUNG: TUMOR, ZYMBAL GLAND: TUMOR) “active; positive”; (Species: RAT, Strain/Sex: F344/FEMALE, Route: ORAL, Dose: 0, 20, 40 UMOL/WK IN DRINKING WATER FOR 30 WK FOR TOTAL DOSES OF 0, 0.6, 1.2 MMOL (STUDY DURATION: LIFETIME), Dose: 0, 20, 40 UMOL/WK IN DRINKING WATER FOR 30 WK FOR TOTAL DOSES OF 0, 0.6, 1.2 MMOL (STUDY DURATION: LIFETIME), Tumor Site: Type of Lesion: LUNG: TUMOR, MAMMARY GLAND: TUMOR, UTERUS: TUMOR, Tumor Site: Type of Lesion: LUNG: TUMOR, MAMMARY GLAND: TUMOR, UTERUS: TUMOR) “active; positive”; (Species: RAT, Strain/Sex: F344/MALE, Route: GAVAGE, Dose: 0, 20, 40 UMOL/WK IN CORN OIL/ETHYL ACETATE (2: 1) FOR 30 WK FOR TOTAL DOSES OF 0, 0.6, 1.2 MMOL (STUDY DURATION: LIFETI, Dose: 0, 20, 40 UMOL/WK IN CORN OIL/ETHYL ACETATE (2: 1) FOR 30 WK FOR TOTAL DOSES OF 0, 0.6, 1.2 MMOL (STUDY DURATION: LIFETI, Tumor Site: Type of Lesion: LUNG: TUMOR, TESTIS: MESOTHELIOMA, NERVOUS SYSTEM: TUMOR, ZYMBAL GLAND: TUMOR, COLON: TUMOR, Tumor Site: Type of Lesion: LUNG: TUMOR, TESTIS: MESOTHELIOMA, NERVOUS SYSTEM: TUMOR, ZYMBAL GLAND: TUMOR, COLON: TUMOR) “active; positive”; (Species: RAT, Strain/Sex: F344/MALE, Route: ORAL, Dose: 0, 20, 40 UMOL/WK IN DRINKING WATER FOR 30 WK FOR TOTAL DOSES OF 0, 0.6, 1.2 MMOL (STUDY DURATION: LIFETIME), Dose: 0, 20, 40 UMOL/WK IN DRINKING WATER FOR 30 WK FOR TOTAL DOSES OF 0, 0.6, 1.2 MMOL (STUDY DURATION: LIFETIME), Tumor Site: Type of Lesion: LUNG: TUMOR, TESTIS: MESOTHELIOMA, COLON: TUMOR, SKIN: TUMOR, Tumor Site: Type of Lesion: LUNG: TUMOR, TESTIS: MESOTHELIOMA, COLON: TUMOR, SKIN: TUMOR) “active; positive”.

As to `O=S(=O)([O-])[O-].[O]=[V+2]`, the carcinogen call is “inactive; negative” (Species: MOUSE, Strain/Sex: SWISS/FEMALE, Route: ORAL, Dose: 0, 5 PPM IN DRINKING WATER FOR DURATION OF STUDY (STUDY DURATION: LIFE SPAN)) and “inactive; negative” (Species: MOUSE, Strain/Sex: SWISS/MALE, Route: ORAL, Dose: 0, 5 PPM IN DRINKING WATER FOR DURATION OF STUDY (STUDY DURATION: LIFE SPAN)).
